# Laboratory results from patent US6482802B1 (Endowment for Research in Human Biology, Inc., priority 1998, dated 2002).
# Several values for one entry are separate records, joined by “and”; a condition that tells them apart may be missing. Equal entries are not always repeated. Entries after “also recorded” stand apart in the source; their conditions may differ.
# Assays:
# HUVE cells [1] = test: Angiogenin-induced proliferation of HUVE cells; assay type: cell-based, human
# Description: HUVE cells were seeded at 4×10^3 cells/cm^2 in attachment factor (Cell Systems Corp.)-coated 35 mm dishes in HE-SFM, and incubated with 1 μg/ml angiogenin in the presence or absence of inhibitors at 37° C. for 48 hr. Cell were detached by trypsinization and cell numbers were determined with a Coulter counter.
# [2] = test system: nuclear translocation of bFGF in HUVE cells; test: Nuclear translocation of 125I-bFGF in HUVE cells; assay type: cell-based, human; conditions: for bFGF Counts (nuclear fraction): 125I-bFGF 50 ng/ml, 0 μM: 18300 ± 200
# Description: Inhibition of nuclear translocation of angiogenic factors in HUVE cells was performed in the following manner. […] The cell pellet was washed once with PBS and lysed with 0.5% triton X-100 in PBS. […] Radioactivity in the nuclear fraction was determined with a gamma counter.
# HUVE cells [3] = test: bFGF-induced proliferation of HUVE cells (neomycin dose series); assay type: cell-based, human; conditions: for bFGF Cell No.: bFGF 10 ng/ml, 48 hrs, 0 μM: 59600 ± 2600
# Description: (§1) The cells were incubated at 37° C. under humidified air containing 5% CO2 for 48 hrs. […] Cell numbers were determined with a Coulter counter.
# [4] = test system: chorioallantoic membrane (CAM) of chick embryos; test: CAM assay, aFGF-induced angiogenesis; assay type: in vivo; conditions: for % Positive: aFGF alone 73, water 21
# Description: (§2) Angiogenesis was measured on the CAM by the method of Knighton et al. (Knighton et al., 1977, Br. J. Cancer 35:347-356) essentially as described (Fett et al., 1985, Biochemistry 24:5480-5486). Fertilized chicken eggs were kept at 18° C. for 2 days and then incubated in a humidified environment at 37° C. for 3 days. Albumin was aspirated from the embryos and after 24 hours, a “window” was cut through the shell and covered with clear tape. […] After 48-68 hours at 37° C., the growth of blood vessels was observed microscopically and recorded as either positive or negative. A positive response (i.e., an angiogenic response) has a typical “spokewheel” appearance.
# [5] = test system: chorioallantoic membrane (CAM) of chick embryos; test: CAM assay, VEGF-induced angiogenesis; assay type: in vivo; conditions: for % Positive: VEGF alone 63, water 21
# Description: as §2
# HUVE cells [6] = test: EGF-induced proliferation of HUVE cells; assay type: cell-based, human; conditions: for EGF Cell No.: EGF 5 ng/ml, 48 hrs, 0 μM 5300 ± 300
# Description: as §1
# [7] = test system: chorioallantoic membrane (CAM) of chick embryos; test: CAM assay, angiogenin-induced angiogenesis; assay type: in vivo; conditions: for % Positive (angiogenic response): angiogenin alone 55, water 20
# Description: as §2
substance,measurement,setting,value
neomycin,IC50,"HUVE cells [1]; HUVE cells, angiogenin 1 μg/ml, 48 hr, read-out: IC50, angiogenin-induced EC proliferation",~10 µM and < 10 µM
same,Cell number,"HUVE cells [1]; aminoglycoside 100 μM, with angiogenin 1 μg/ml, none: 62,500 ± 100","53,400 ± 1,900"
same,Cell number,"HUVE cells [1]; aminoglycoside 100 μM, without angiogenin, none: 52,000 ± 100","52,700 ± 700"
same,percent of cell number in the presence of 1 μg/ml angiogenin relative to the corresponding control,"HUVE cells [1]; aminoglycoside 100 μM, none: 120",101%
same,inhibition of proliferative activity of angiogenin,"HUVE cells [1]; neomycin 5 μM, angiogenin 1 μg/ml, 48 hr",49%
same,inhibition of angiogenin-induced cell proliferation,"HUVE cells [1]; neomycin 25 μM, angiogenin 1 μg/ml, 48 hr",69%
same,angiogenin-induced cell proliferation,"HUVE cells [1]; neomycin 50 μM, angiogenin 1 μg/ml, 48 hr",completely abolished
same,effect of neomycin alone on cell proliferation,"HUVE cells [1]; no angiogenin, 48 hr",neither induced nor inhibited cell proliferation
same,bFGF % Inhib. of nuclear translocation,[2]; neomycin 10 μM,13%
same,bFGF Counts (nuclear fraction),[2]; neomycin 10 μM,15900 ± 100 cpm
same,bFGF % Inhib. of nuclear translocation,[2]; neomycin 50 μM,22%
same,bFGF Counts (nuclear fraction),[2]; neomycin 50 μM,14300 ± 100 cpm
same,bFGF % Inhib. of nuclear translocation,[2]; neomycin 100 μM,26%
same,bFGF Counts (nuclear fraction),[2]; neomycin 100 μM,13500 ± 300 cpm
same,bFGF % Inhib. of nuclear translocation,[2]; neomycin 150 μM,32%
same,bFGF Counts (nuclear fraction),[2]; neomycin 150 μM,12400 ± 200 cpm
same,bFGF % Inhib. of nuclear translocation,[2]; neomycin 200 μM,40%
same,bFGF Counts (nuclear fraction),[2]; neomycin 200 μM,10900 ± 100 cpm
same,bFGF Inhib. % of cell proliferation,HUVE cells [3]; neomycin 25 μM,19%
same,bFGF Cell No.,HUVE cells [3]; neomycin 25 μM,51500 ± 700
same,bFGF Inhib. % of cell proliferation,HUVE cells [3]; neomycin 50 μM,34%
same,bFGF Cell No.,HUVE cells [3]; neomycin 50 μM,45900 ± 1200
same,bFGF Inhib. % of cell proliferation,HUVE cells [3]; neomycin 100 μM,41%
same,bFGF Cell No.,HUVE cells [3]; neomycin 100 μM,42600 ± 200
same,bFGF Inhib. % of cell proliferation,HUVE cells [3]; neomycin 150 μM,49%
same,bFGF Cell No.,HUVE cells [3]; neomycin 150 μM,39900 ± 125
same,bFGF Inhib. % of cell proliferation,HUVE cells [3]; neomycin 200 μM,64%
same,bFGF Cell No.,HUVE cells [3]; neomycin 200 μM,34600 ± 400
same,IC50,"HUVE cells [3]; read-out: IC50, bFGF-induced proliferation of endothelial cells",~100 µM
same,% Inhibition of angiogenic activity,[4]; aFGF 10 ng + neomycin 20 ng,71%
same,Positive eggs,"[4]; aFGF 10 ng + neomycin 20 ng, 14 total eggs",5
same,% Positive,[4]; aFGF 10 ng + neomycin 20 ng,36%
same,% Inhibition of angiogenic activity,[4]; aFGF 10 ng + neomycin 200 ng,75%
same,Positive eggs,"[4]; aFGF 10 ng + neomycin 200 ng, 47 total eggs",16
same,% Positive,[4]; aFGF 10 ng + neomycin 200 ng,32% and 34%
same,dosage that inhibited aFGF-induced angiogenesis,[4]; in vivo,about 200 ng per embryo
same,% Inhibition of angiogenic activity,[5]; VEGF 10 ng + neomycin 200 ng,10%
same,Positive eggs,"[5]; VEGF 10 ng + neomycin 200 ng, 24 total eggs",14
same,% Positive,[5]; VEGF 10 ng + neomycin 200 ng,58%
same,% Inhibition of angiogenic activity,[5]; VEGF 10 ng + neomycin 1000 ng,24%
same,% Positive,[5]; VEGF 10 ng + neomycin 1000 ng (1 μg),52%
same,Positive eggs,"[5]; VEGF 10 ng + neomycin 1000 ng, 27 total eggs",14
same,inhibition of angiogenic activity of VEGF on the CAM,"[5]; VEGF 10 ng, neomycin 200 ng and 1 μg",did not significantly inhibit; also recorded: not significantly inhibited
same,reduction of angiogenic activity of VEGF on the CAM,[5]; dosage as high as 900 ng per embryo,did not significantly reduce
same,EGF Inhib. % of cell proliferation,HUVE cells [6]; neomycin 25 μM,17%
same,EGF Cell No.,HUVE cells [6]; neomycin 25 μM,46700 ± 600
same,EGF Inhib. % of cell proliferation,HUVE cells [6]; neomycin 50 μM,35%
same,EGF Cell No.,HUVE cells [6]; neomycin 50 μM,41700 ± 600
same,EGF Inhib. % of cell proliferation,HUVE cells [6]; neomycin 100 μM,59%
same,EGF Cell No.,HUVE cells [6]; neomycin 100 μM,35700 ± 1100
same,EGF Inhib. % of cell proliferation,HUVE cells [6]; neomycin 150 μM,71%
same,EGF Cell No.,HUVE cells [6]; neomycin 150 μM,32800 ± 200
same,EGF Inhib. % of cell proliferation,HUVE cells [6]; neomycin 200 μM,100%
same,EGF Cell No.,HUVE cells [6]; neomycin 200 μM,26000 ± 900
same,IC50,"HUVE cells [6]; read-out: IC50, EGF-induced proliferation of endothelial cells",~100 µM
same,dose that abolishes the angiogenic activity of angiogenin,[7]; angiogenin 10 ng,20 ng per egg
same,% Positive (angiogenic response),[7]; angiogenin 10 ng + neomycin 4 ng,40%
same,% Positive (angiogenic response),[7]; angiogenin 10 ng + neomycin 20 ng,20%
same,% Positive (angiogenic response),[7]; angiogenin 10 ng + neomycin 200 ng,25%
